Reference: patent US20230265151A1, “GIP/GLP1 CO-AGONIST COMPOUNDS” (priority 2020, published 2023)
Like-named read-outs stand apart in the source and are kept apart here.

What was measured:
hGIPR = biological target: T1, hGIPR (Homo sapiens, UniProt P48546); assay: Functional cAMP formation (HTRF) in HEK-293 clonal cells expressing hGIPR, 0.1% bovine casein, without or with 1.0% human serum albumin; format: cell-based; conditions: for Emax: 37° C., read-out: hGIPR Emax, % ± SEM
T1 construct: expressed in transfected cells
T1 sequence (P48546 22-466): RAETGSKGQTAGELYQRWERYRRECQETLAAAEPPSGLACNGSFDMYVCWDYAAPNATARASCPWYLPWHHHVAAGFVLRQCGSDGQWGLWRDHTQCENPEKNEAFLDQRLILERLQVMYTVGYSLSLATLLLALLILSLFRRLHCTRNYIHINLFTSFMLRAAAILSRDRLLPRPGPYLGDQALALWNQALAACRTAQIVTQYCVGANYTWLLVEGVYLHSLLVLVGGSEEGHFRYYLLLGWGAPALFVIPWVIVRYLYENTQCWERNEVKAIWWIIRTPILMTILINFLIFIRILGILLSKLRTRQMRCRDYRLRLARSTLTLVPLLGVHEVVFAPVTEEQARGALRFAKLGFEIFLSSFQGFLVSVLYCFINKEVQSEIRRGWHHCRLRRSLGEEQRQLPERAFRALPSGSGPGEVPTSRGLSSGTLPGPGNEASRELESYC
Procedure: (§1) After a 30-min incubation at 37° C., the resulting increase in intracellular cAMP is quantitatively determined using a CisBio cAMP Dynamic 2 HTRF Assay Kit (62AM4PEJ). Briefly, cAMP levels within the cell are detected by adding the cAMP-d2 conjugate in cell lysis buffer (10 µL) followed by the antibody anti-cAMP-Eu^3+-Cryptate, also in cell lysis buffer (10 µL). The resulting competitive assay is incubated for at least 60 min at room temperature, and then is detected using a PerkinElmer Envision® instrument with excitation at 320 nm and emission at 665 nm and 620 nm. Envision units (emission at 665 nm/620 nm* 10,000) are inversely proportional to the amount of cAMP present and are converted to nM cAMP per well us-ing a cAMP standard curve. […] A relative EC50 value and percent top (Emax) are derived by non-linear regression analysis using the percent maximal response vs. the concentration of peptide added, fitted to a four-parameter logistic equation.

hGCGR = biological target: T2, hGCGR (Homo sapiens, UniProt P47871); assay: Functional cAMP formation (HTRF) in HEK-293 clonal cells expressing hGCGR, 0.1% bovine casein, without or with 1.0% human serum albumin; format: cell-based; conditions: geometric mean, read-out: hGCGR EC50, nM (SEM, n)
T2 construct: expressed in transfected cells
T2 sequence (P47871 26-477): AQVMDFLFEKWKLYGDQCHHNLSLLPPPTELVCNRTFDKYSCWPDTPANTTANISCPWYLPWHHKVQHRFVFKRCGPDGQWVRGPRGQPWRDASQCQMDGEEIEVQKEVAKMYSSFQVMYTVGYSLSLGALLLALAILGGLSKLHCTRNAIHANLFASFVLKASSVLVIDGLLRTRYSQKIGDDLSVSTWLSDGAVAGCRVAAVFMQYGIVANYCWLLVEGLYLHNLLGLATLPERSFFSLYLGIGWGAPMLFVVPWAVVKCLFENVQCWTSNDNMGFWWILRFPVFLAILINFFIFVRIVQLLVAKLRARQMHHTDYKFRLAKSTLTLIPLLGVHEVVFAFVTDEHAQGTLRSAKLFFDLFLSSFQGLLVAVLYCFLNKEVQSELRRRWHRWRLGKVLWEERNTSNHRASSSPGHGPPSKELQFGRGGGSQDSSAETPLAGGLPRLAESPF
Procedure: as §1

[1] = HEK293, percent of maximal response to GIP(1-42)NH2, 0.1% bovine casein, arithmetic mean
[2] = cAMP, incubated at 37° C., 0.1% bovine casein (no human serum albumin)

| Compound | Emax (hGIPR; [1]) [%] | EC50 (hGCGR; [2]) [nM] | EC50 (hGIPR; cAMP, incubated at 37° C., 0.1% bovine casein (no human serum albumin), geometric mean, read-out: hGIPR EC50, nM (SEM, n)) [nM] | Emax (hGIPR; HEK293, 0.1% bovine casein and 1.0% human serum albumin, percent of maximal response to GIP(1-42)NH2) [%] | EC50 (hGCGR; 0.1% bovine casein and 1.0% human serum albumin, 37° C.) [nM] |
| --- | --- | --- | --- | --- | --- |
| CC[C@H](C)[C@H](NC(=O)[C@H](CC(C)C)NC(=O)[C@](C)(Cc1ccc(O)cc1)NC(=O)[C@@H](CCC(=O)O)NC(=O)[C@@H](NC(=O)[C@H](Cc1ccccc1)NC(=O)[C@H](CCC(=O)O)NC(=O)C(C)(C)NC(=O)[C@H](CCC(N)=O)NC(=O)[C@H](C)NC(=O)[C@H](CCCCNC(=O)COCCOCCNC(=O)COCCOCCNC(=O)CC[C@H](NC(=O)CCCCCCCCCCCCC(=O)O)C(=O)O)NC(=O)[C@H](CCCN)NC(=O)[C@H](CC(=O)O)NC(=O)[C@H](CC(C)C)NC(=O)[C@](C)(CC(C)C)NC(=O)[C@@H](NC(=O)[C@H](CO)NC(=O)[C@H](Cc1ccncc1)NC(=O)[C@H](CC(=O)O)NC(=O)[C@H](CO)NC(=O)[C@@H](NC(=O)[C@](C)(Cc1ccccc1F)NC(=O)[C@@H](NC(=O)CNC(=O)[C@H](CCC(=O)O)NC(=O)C(C)(C)NC(=O)[C@@H](N)Cc1ccc(O)cc1)[C@@H](C)O)[C@@H](C)O)[C@@H](C)CC)[C@@H](C)CC)C(=O)N[C@@H](CCC(=O)O)C(=O)NCC(=O)N[C@@H](CCCN)C(=O)N[C@@H](CCCCNC(=O)COCCOCCNC(=O)COCCOCCNC(=O)CC[C@H](NC(=O)CCCCCCCCCCCCC(=O)O)C(=O)O)C(=O)N[C@@H](CO)C(=O)N[C@@H](CO)C(=O)NCC(=O)N[C@@H](C)C(=O)N1CCC[C@H]1C(=O)N1CCC[C@H]1C(=O)N1CCC[C@H]1C(=O)N[C@@H](CO)C(N)=O [Example 152] | 97.9 ± 3.25 | > 9950 |  |  |  |
| CC[C@H](C)[C@H](NC(=O)[C@H](CCCN)NC(=O)[C@H](CC(=O)O)NC(=O)[C@H](CC(C)C)NC(=O)[C@](C)(CC(C)C)NC(=O)[C@@H](NC(=O)[C@H](CO)NC(=O)[C@H](CCCCNC(=O)COCCOCCNC(=O)COCCOCCNC(=O)CC[C@H](NC(=O)CCCCCCCCCCCCC(=O)O)C(=O)O)NC(=O)[C@H](CC(=O)O)NC(=O)[C@H](CO)NC(=O)[C@@H](NC(=O)[C@](C)(Cc1ccccc1F)NC(=O)[C@@H](NC(=O)CNC(=O)[C@H](CCC(=O)O)NC(=O)C(C)(C)NC(=O)[C@@H](N)Cc1ccc(O)cc1)[C@@H](C)O)[C@@H](C)O)[C@@H](C)CC)C(=O)N[C@@H](C)C(=O)N[C@@H](CCC(N)=O)C(=O)NC(C)(C)C(=O)N[C@@H](CCC(=O)O)C(=O)N[C@@](C)(Cc1ccccc1)C(=O)N[C@H](C(=O)N[C@H](CCC(=O)O)C(=O)N[C@@](C)(Cc1ccc(O)cc1)C(=O)N[C@@H](CC(C)C)C(=O)N[C@H](C(=O)N[C@@H](CCC(=O)O)C(=O)NCC(=O)NCC(=O)N[C@@H](CCCCNC(=O)COCCOCCNC(=O)COCCOCCNC(=O)CC[C@H](NC(=O)CCCCCCCCCCCCC(=O)O)C(=O)O)C(=O)N[C@@H](CO)C(=O)N[C@@H](CO)C(=O)NCC(=O)N[C@@H](C)C(=O)N1CCC[C@H]1C(=O)N1CCC[C@H]1C(=O)N1CCC[C@H]1C(=O)N[C@@H](CO)C(N)=O)[C@@H](C)CC)[C@@H](C)CC [Example 112] | 93.6 | > 9950 | 0.0229 |  |  |
| CC[C@H](C)[C@H](NC(=O)[C@H](CC(C)C)NC(=O)[C@](C)(Cc1ccc(O)cc1)NC(=O)[C@@H](CCC(=O)O)NC(=O)[C@@H](NC(=O)[C@H](Cc1ccccc1)NC(=O)[C@H](CCC(=O)O)NC(=O)C(C)(C)NC(=O)[C@H](CCC(N)=O)NC(=O)[C@H](C)NC(=O)[C@H](CCCCNC(=O)COCCOCCNC(=O)COCCOCCNC(=O)CC[C@H](NC(=O)CCCCCCCCCCCCC(=O)O)C(=O)O)NC(=O)[C@H](CCCN)NC(=O)[C@H](CC(=O)O)NC(=O)[C@H](CC(C)C)NC(=O)[C@](C)(CC(C)C)NC(=O)[C@@H](NC(=O)[C@H](CO)NC(=O)[C@@H](NC(=O)[C@H](CC(=O)O)NC(=O)[C@H](CO)NC(=O)[C@@H](NC(=O)[C@](C)(Cc1ccccc1F)NC(=O)[C@@H](NC(=O)CNC(=O)[C@H](CCC(=O)O)NC(=O)C(C)(C)NC(=O)[C@@H](N)Cc1ccc(O)cc1)[C@@H](C)O)[C@@H](C)O)C1CCCCC1)[C@@H](C)CC)[C@@H](C)CC)C(=O)N[C@@H](CCC(=O)O)C(=O)NCC(=O)NCC(=O)N[C@@H](CCCCNC(=O)COCCOCCNC(=O)COCCOCCNC(=O)CC[C@H](NC(=O)CCCCCCCCCCCCC(=O)O)C(=O)O)C(=O)N[C@@H](CO)C(=O)N[C@@H](CO)C(=O)NCC(=O)N[C@@H](C)C(=O)N1CCC[C@H]1C(=O)N1CCC[C@H]1C(=O)N1CCC[C@H]1C(=O)N[C@@H](CO)C(N)=O [Example 97] | 97 ± 1.53 | > 9950 |  | 93.1 | > 9950 |
| CC[C@H](C)[C@H](NC(=O)[C@H](CC(C)C)NC(=O)[C@](C)(Cc1ccc(O)cc1)NC(=O)[C@@H](CCC(=O)O)NC(=O)[C@@H](NC(=O)[C@H](Cc1ccccc1)NC(=O)[C@H](CCC(=O)O)NC(=O)C(C)(C)NC(=O)[C@H](CCC(N)=O)NC(=O)[C@H](C)NC(=O)[C@H](CCCCNC(=O)COCCOCCNC(=O)COCCOCCNC(=O)CC[C@H](NC(=O)CCCc1ccc(C(C)(C)C)cc1)C(=O)O)NC(=O)[C@H](CCCN)NC(=O)[C@H](CC(=O)O)NC(=O)[C@H](CC(C)C)NC(=O)[C@](C)(CC(C)C)NC(=O)[C@@H](NC(=O)C(C)(C)NC(=O)[C@@H](NC(=O)[C@H](CC(=O)O)NC(=O)[C@H](CO)NC(=O)[C@@H](NC(=O)[C@](C)(Cc1ccccc1F)NC(=O)[C@@H](NC(=O)CNC(=O)[C@H](CCC(=O)O)NC(=O)C(C)(C)NC(=O)[C@@H](N)Cc1ccc(O)cc1)[C@@H](C)O)[C@@H](C)O)C(C)C)[C@@H](C)CC)[C@@H](C)CC)C(=O)N[C@@H](CCC(=O)O)C(=O)NCC(=O)NCC(=O)N[C@@H](CCCCNC(=O)COCCOCCNC(=O)COCCOCCNC(=O)CC[C@H](NC(=O)CCCc1ccc(C(C)(C)C)cc1)C(=O)O)C(=O)N[C@@H](CO)C(=O)N[C@@H](CO)C(=O)NCC(=O)N[C@@H](C)C(=O)N1CCC[C@H]1C(=O)N1CCC[C@H]1C(=O)N1CCC[C@H]1C(=O)N[C@@H](CO)C(N)=O [Example 177] | 113 | > 9950 |  |  |  |
| CC[C@H](C)[C@H](NC(=O)[C@H](CC(C)C)NC(=O)[C@](C)(Cc1ccc(O)cc1)NC(=O)[C@@H](CCC(=O)O)NC(=O)[C@@H](NC(=O)[C@H](Cc1ccccc1)NC(=O)[C@H](CCC(=O)O)NC(=O)C(C)(C)NC(=O)[C@H](CCC(N)=O)NC(=O)[C@H](C)NC(=O)[C@H](CCCCNC(=O)COCCOCCNC(=O)COCCOCCNC(=O)CC[C@H](NC(=O)CCCCCCCCCCCCC(=O)O)C(=O)O)NC(=O)[C@H](CCCN)NC(=O)[C@H](CC(=O)O)NC(=O)[C@H](CC(C)C)NC(=O)[C@](C)(CC(C)C)NC(=O)[C@@H](NC(=O)[C@H](CO)NC(=O)[C@H](Cc1ccc(C(=O)O)cc1)NC(=O)[C@H](CC(=O)O)NC(=O)[C@H](CO)NC(=O)[C@@H](NC(=O)[C@](C)(Cc1ccccc1F)NC(=O)[C@@H](NC(=O)CNC(=O)[C@H](CCC(=O)O)NC(=O)C(C)(C)NC(=O)[C@@H](N)Cc1ccc(O)cc1)[C@@H](C)O)[C@@H](C)O)[C@@H](C)CC)[C@@H](C)CC)C(=O)N[C@@H](CCC(=O)O)C(=O)NCC(=O)NCC(=O)N[C@@H](CCCCNC(=O)COCCOCCNC(=O)COCCOCCNC(=O)CC[C@H](NC(=O)CCCCCCCCCCCCC(=O)O)C(=O)O)C(=O)N[C@@H](CO)C(=O)N[C@@H](CO)C(=O)NCC(=O)N[C@@H](C)C(=O)N1CCC[C@H]1C(=O)N1CCC[C@H]1C(=O)N1CCC[C@H]1C(=O)N[C@@H](CO)C(N)=O [Example 96] |  | > 9950 |  |  |  |
